The values below are quoted from earlier work in paper PMC4021529 (British Journal of Cancer, 2014).

This data set concerns advanced solid tumours. The conditions noted are these: phase I trial, advanced solid malignancies, cited from earlier work.

SMILES strings stand for the structures. Like-named read-outs stand apart in the source and are kept apart here.

For `C[C@@H](Oc1cc(-n2cnc3ccc(CN4CCN(C)CC4)cc32)sc1C(N)=O)c1ccccc1C(F)(F)F` [GSK461364], the objective responses entry (ref Olmos et al, 2011) is listed as “no objective responses”.

Turning to `COc1ccc(S(=O)(=O)N(C(C)=O)c2ccccc2/C=C/c2cc[n+]([O-])cc2)cc1` [HMN-214], under “ref Garland et al, 2006”, the objective responses result is “no objective responses”.
